Laboratory results taken from PMC5478822, “In Vitro Anticancer Effect of Gedunin on Human Teratocarcinomal (NTERA-2) Cancer Stem-Like Cells” (BioMed Research International, 2017).
Converted amounts (≈) assume the structure as drawn. Read-outs that look alike come from different tables or passages of the source.

Legend:
[1] = test system: caspase 3/7 in NTERA-2 cells; test: Caspase 3/7 assay; type: cell-based, human; conditions: 24 h
Procedure: NTERA-2 cells (2.5 × 10^4 cells/mL) were cultured in 96-well cell culture plates and incubated for 24 h. After incubation, cells were treated with gedunin dissolved in 0.1% DMSO (2.5, 5, and 10 μg/mL) and incubated for further 24 h. Negative control for the experiment was 0.1% DMSO in DMEM medium. Caspase 3/7 reagent (100 μL) was then added to each well and incubated for 1 h in dark at 37°C. Luminescence of each well was measured by a plate reader.

[2] = test system: NTERA-2 cells; test: TUNEL assay; type: cell-based, human; conditions: NTERA-2 cells, 2.5, 5 and 10 μg/mL, 24 h
Procedure: Terminal deoxynucleotidyl transferase-mediated dUTP-biotin nick-end labeling (TUNEL) staining was carried out to confirm in situ chromatin fragmentation. Cells cultured on coverslips (2.5 × 10^4 cells/mL) were treated with different concentrations of gedunin dissolved in 0.1% DMSO (2.5, 5, and 10 μg/mL) and incubated for 24 h. Negative control for the experiment was 0.1% DMSO in DMEM medium. TUNEL staining was carried out according to manufacturer's instructions. Briefly, cells were fixed with 4% formaldehyde and permeabilized with 0.2% Triton X-100. Equilibration buffer (100 μL) and TdT reaction mix to label DNA were added and incubated for further 60 min in a humidified chamber. Then coverslips were immersed in 2x SSC buffer for 15 min followed by immersing in 0.3% H2O2 for 3 min. Finally, labeled fragments were incubated with streptavidin horseradish peroxidase and visualized after diaminobenzidine (DAB) color development where dark brown spots confirmed apoptosis.

[3] = test system: Bax; test: RT-qPCR gene expression, Bax; type: cell-based, human; conditions: NTERA-2 cells, both doses tested, 24 h
Procedure: (§1) NTERA-2 (2.5 × 10^5 cells/mL) cells were cultured in cell culture flasks and treated with gedunin dissolved in 0.1% DMSO (5 and 10 μg/mL) for 24 h. Negative control for the experiment was 0.1% DMSO in DMEM medium. Following incubation, total RNA was extracted with TRIzol® reagent according to the manufacturer's instructions. For reverse transcription, extracted RNA (2 μg) was mixed with 50 ng of random primers and the total volume was made up to 13.5 μL with ultrapure water. Resulting mixture was incubated at 70°C for 5 min and, after incubation, it was kept on ice for 2 min. Complementary DNA (cDNA) was then synthesized by adding 2 μL from the transcription mixture, 5 μL of 5x MMLV-buffer, 5 μL of 10 mM deoxynucleotide mixture, 25 units of RNasin, and 200 units of MMLV-reverse transcriptase in a reaction mixture of 25 μL adjusted by adding ultrapure water and incubated at 37°C for 60 min. Real-time PCR was carried out in Stratagene Mx3000P using a master mix containing SYBR green (MESA Green qPCR Master Mix Plus for SYBR Assay). Primers used for real-time PCR are given in Table 1 and glyceraldehyde-3-phosphate dehydrogenase (GAPDH) was used as the internal housekeeping gene. […] Results of real-time PCR were analysed using the formula 2^−ΔΔCt.

[4] = test system: HSF1; test: RT-qPCR gene expression, HSF1; type: cell-based, human; conditions: NTERA-2 cells, 24 h incubation
Procedure: as §1

[5] = test system: survivin; test: RT-qPCR gene expression, survivin; type: cell-based, human; conditions: NTERA-2 cells, both doses tested, 24 h
Procedure: as §1

[6] = test system: Cdc37; test: RT-qPCR gene expression, Cdc37; type: cell-based, human; conditions: NTERA-2 cells, 5 and 10 μg/mL, 24 h
Procedure: as §1

[7] = test system: AKT; test: RT-qPCR gene expression, AKT; type: cell-based, human; conditions: NTERA-2 cells, 24 h incubation
Procedure: as §1

[8] = test system: peripheral blood mononuclear cells; test: WST-1 cell viability assay; type: cell-based, human; conditions: for IC50: Homo sapiens, PBMC, PBMCs, WST-1 assay; for Cytotoxic effect on normal peripheral blood mononuclear cells: WST-1 cell viability assay
Procedure: Cytotoxic effects of gedunin and positive control (retinoic acid) on normal human cells were evaluated by using human peripheral blood mononuclear cells. Collected blood was diluted with Hank's Buffered Salt Solution (HBSS) and layered onto Histopaque 1077. Blood was then centrifuged at 1000 rpm for 10 min. After centrifugation, opaque interface which contains mononuclear cells was seperated and washed with phosphate buffered saline (PBS). Cells were then counted and cultured (2 × 10^5 cells/mL) in RPMI medium supplemented with 10% fetal bovine serum (FBS), 50 IU/mL penicillin, and 50 μg/mL streptomycin in 24-well plates. Cells were then treated with different concentrations of gedunin and retinoic acid dissolved in 0.1% DMSO (3.125, 6.25, 12.5, 25, and 50 μg/mL) and incubated for 24, 48, and 72 h. Negative control for the experiment was 0.1% DMSO in RPMI medium. WST-1 cell proliferation assay was then carried out according to manufacturer's instructions to determine the cytotoxic effects.

[9] = test system: ErbB2; test: RT-qPCR gene expression, ErbB2; type: cell-based, human; conditions: NTERA-2 cells, 24 h incubation
Procedure: as §1

[10] = test system: NTERA-2 cells; test: Sulforhodamine B (SRB) antiproliferative assay; type: cell-based; conditions: Homo sapiens
Procedure: The NTERA-2 cells were cultured using Dulbecco's Modified Eagle's Medium (DMEM), supplemented with 10% fetal bovine serum (FBS), 50 IU/mL penicillin, and 50 μg/mL streptomycin. Cells were incubated at 37°C with 5% CO2 and 95% humidity.
Prior to the SRB assay, NTERA-2 cells were grown in a 75 cm[…] flasks. Upon confluency, cells were trypsinized and seeded into 96-well plates (5 × 10^3 cells/well). After 24 h incubation, cells were treated with various concentrations (3.125, 6.25, 12.5, 25, and 50 μg/mL) of gedunin and retinoic acid (positive control) dissolved in 0.1% dimethyl sulfoxide (DMSO) and incubated for 24, 48, and 72 h. Negative control for the experiment was 0.1% DMSO in DMEM medium. Then the cells were fixed with 20 μL of 50% (trichloroacetic acid) TCA and incubated for further 1 h at 4°C. After incubation, cells were washed five times with tap water and stained with 50 μL of 0.4% (w/v) SRB solution. After 20 min of incubation, SRB solution was poured off and unbound dye was removed by washing five times with 1% acetic acid. Bound SRB dye was then solubilized by adding 100 μL of Tris base solution. The plates were shaken for 1 h and absorbance was read at 540 nm OD.

[11] = test system: NTERA-2 cells; test: Acridine orange/ethidium bromide (AO/EB) staining; type: cell-based, human; conditions: NTERA-2 cells, 2.5, 5 and 10 μg/mL, 24 h
Procedure: NTERA-2 cells (2.5 × 10^4 cells/mL) were cultured on cell culture treated coverslips and incubated for 24 h. Subsequently, cells were exposed to different concentrations of gedunin dissolved in 0.1% DMSO (2.5, 5, and 10 μg/mL) and incubated for 24 h. Negative control for the experiment was 0.1% DMSO in DMEM medium. After incubation, cells were fixed using 4% formaldehyde in the dark for 10 min. Cells were then washed with PBS and stained with ethidium bromide (100 μg/mL) and acridine orange (100 μg/mL) solutions (1 : 1 v/v). Excess dye was then washed off with PBS and cell morphology was observed using a fluorescence microscope (BX51 TRF, Olympus Corporation, Tokyo, Japan).

[12] = test system: NTERA-2 cells; test: Nitrobluetetrazolium reactive oxygen species (ROS) assay; type: cell-based, human; conditions: 24 h after incubation, 2.5, 5 and 10 μg/mL
Procedure: ROS measurement in gedunin treated NTERA-2 cells was carried out using previously described methods. Cells (2 × 10^3) were cultured in 96-well cell culture plates and incubated for 24 h. After incubation cells were treated with gedunin (2.5, 5, and 10 μg/mL) and incubated for further 24 h. Cells were then incubated with nitrobluetetrazolium (1 mg/mL) for 1 h at 37°C. After the incubation 100 μL of DMSO was added to solubilize blue formazan, plates were shaken for 10 min at room temperature, and the absorbance was read at 620 nm.

[13] = test system: NTERA-2 cells; test: DNA fragmentation analysis; type: cell-based, human; conditions: 48 and 72 h, gedunin 5, 10 and 15 μg/mL
Procedure: DNA fragmentation analysis was carried out according to previously described methods. NTERA-2 cells (2.5 × 10^4 cells/mL) were grown in cell culture flasks and incubated for 24 h. After incubation, flasks were treated with gedunin dissolved in 0.1% DMSO (5, 10, and 15 μg/mL) and further incubated for 48 and 72 h. Negative control for the experiment was 0.1% DMSO in DMEM medium. At the end of the incubation period, cells were trypsinized and cell pellets were obtained. Cell pellets were then incubated for 60 min at 50°C in a 100 μL of lysis buffer (100 mM Tris–HCl, pH 8, 100 mM NaCl, and 10 mM EDTA). Proteinase K (10 μL, 20 mg/mL) was then added to cell lysates and incubated for 30 min at 50°C. After adding 3 μL of 10 mg/mL RNase, the mixture was incubated for 2 h at 50°C. DNA was extracted in phenol chloroform-isoamyl alcohol and 1 μg of isolated DNA from each sample was subjected to 2.0% of agarose gel electrophoresis and visualized under UV using a gel-doc system (Quantum-ST4 1100/20 M).

[14] = test system: p53; test: RT-qPCR gene expression, p53; type: cell-based, human; conditions: NTERA-2 cells, 5 and 10 μg/mL, 24 h
Procedure: as §1

[15] = test system: HSP90; test: RT-qPCR gene expression, HSP90; type: cell-based, human; conditions: NTERA-2 cells, 5 and 10 μg/mL, 24 h
Procedure: as §1

[16] = 24 h incubation, read-out: IC50 in peripheral blood mononuclear cells, 24 h
[17] = 48 h incubation, read-out: IC50 in peripheral blood mononuclear cells, 48 h
[18] = 72 h incubation, read-out: IC50 in peripheral blood mononuclear cells, 72 h
[19] = NTERA2, 24 h incubation, read-out: IC50 in NTERA-2 cells, 24 h
[20] = NTERA2, 48 h incubation, read-out: IC50 in NTERA-2 cells, 48 h
[21] = NTERA2, 72 h incubation, read-out: IC50 in NTERA-2 cells, 72 h

With CC(=O)O[C@@H]1C[C@H]2C(C)(C)C(=O)C=C[C@]2(C)[C@H]2CC[C@@]3(C)[C@H](c4ccoc4)OC(=O)[C@H]4O[C@]43[C@@]21C [Gedunin] as the molecule, how does the “Fold change in caspase 3/7 activity” value ([1]; 2.5 μg/mL) read?
The value was 1.08 fold.

What about the “Fold change in caspase 3/7 activity” value ([1]; 5 μg/mL) of the same molecule?
Its value is 1.2 fold.

And the “Fold change in caspase 3/7 activity” value ([1]; 10 μg/mL)?
Its value is 1.41 fold.

And the TUNEL-positive nuclei [2]?
Its TUNEL-positive nuclei is “increase in the number of TUNEL-positive nuclei”.

What about the “Expression of Bax (real-time PCR)” value [3] of the same molecule?
The value was “Upregulation of Bax”.

What about the “Expression of HSF1 (real-time PCR)” value [4] of the same molecule?
The value was “Significant downregulation”.

What about the “Expression of survivin (real-time PCR)” value [5] of the same molecule?
The value was “downregulation”.

What about the “Expression of Cdc37 (real-time PCR)” value [6] of the same molecule?
The value was “downregulation”.

What about the “Expression of AKT (real-time PCR)” value [7] of the same molecule?
Its value is “Significant downregulation”.

And the IC50 [8, 16]?
The IC50 was greater than 100 µg/mL.

What about the IC50 [8, 17] of the same molecule?
Its IC50 is greater than 100 µg/mL.

What about the IC50 [8, 18] of the same molecule?
The IC50 was greater than 100 µg/mL.

And the “Cytotoxic effect on normal peripheral blood mononuclear cells” value [8]?
Its value is “minimal effect on PBMCs”.

What about the “Cytotoxic effect on normal peripheral blood mononuclear cells” value ([8]; listed as gedunin) of the same molecule?
The value was “not significant”.

And the “Expression of ErbB2 (real-time PCR)” value [9]?
Its value is “Significant downregulation”.

What about the IC50 [10, 19] of the same molecule?
Its IC50 is 14.6 µg/mL (≈ 30.2 µM).

What about the IC50 [10, 20] of the same molecule?
Its IC50 is 8.49 µg/mL (≈ 17.6 µM).

And the IC50 [10, 21]?
The IC50 was 6.55 µg/mL (≈ 13.6 µM).

What about the “Morphological changes after AO/EB staining” value [11] of the same molecule?
The value was “morphological changes of apoptosis”.

What about the ROS production [12] of the same molecule?
The ROS production was “increase in ROS production”.

What about the “DNA fragmentation (laddering pattern)” value [13] of the same molecule?
The value was “smeared laddering pattern of DNA was observed”.

And the “Expression of p53 (real-time PCR)” value [14]?
Its value is “upregulation of p53”.

And the “Expression of HSP90 (real-time PCR)” value [15]?
Its value is “downregulation”.

Which IC50 [8, 16] does the source give for CC1=C(/C=C/C(C)=C/C=C/C(C)=C/C(=O)O)C(C)(C)CCC1 [Retinoic acid, retinoic acid, reference compound] here?
Its IC50 is greater than 100 µg/mL.

What about the IC50 [8, 17] of the same molecule?
Its IC50 is greater than 100 µg/mL.

What about the IC50 [8, 18] of the same molecule?
The IC50 was greater than 100 µg/mL.

What about the IC50 [10, 19] of the same molecule?
Its IC50 is 14.4 µg/mL (≈ 47.8 µM).

And the IC50 [10, 20]?
Its IC50 is 9.17 µg/mL (≈ 30.5 µM).

What about the IC50 [10, 21] of the same molecule?
Its IC50 is 6.87 µg/mL (≈ 22.9 µM).

And the “DNA fragmentation (laddering pattern)” value [13]?
Its value is “smeared laddering pattern of DNA was observed”.

Which “DNA fragmentation (laddering pattern)” value [13] does the source give for CC1=CC(=O)C(C(C)C)=CC1=O [thymoquinone] here?
The value was “smeared laddering pattern of DNA was observed”.
